# Results taken from US20250064954A1, “STEROIDS AND ANTIBODY-CONJUGATES THEREOF” (REGENERON PHARMACEUTICALS, INC., priority 2018, published 2025).
# Legend:
# [1] = Solubility of payloads and linker-payloads; settings: aqueous DMSO (20%)
# [2] = Plasma stability in human plasma; assay type: in vitro ADME; settings: 37° C.; for Percent Remaining (%) 1 h / Percent Remaining (%) 8 h / Percent Remaining (%) 24 h / Percent Remaining (%) […]: BQL: Below Quantitation Limit
# Protocol: Plasma stability can be measured according to the following protocol.
# Preheated 0.05 M sodium phosphate and 0.07 M NaCl buffer, pH 7.4: 14.505 g/L Na2HPO4_12H2O, 1.483 g/L NaH2PO4_2H2O and 4.095 g/L NaCl were dissolved in deionized water. The basic solution was then titrated with the phosphoric acid to pH 7.40 and stored refrigerated for up to 7 days. pH was checked on the day of experiment and adjusted if outside specification of 7.4+/−0.1.
# Plasma preparation: frozen plasma were thawed by placing at 37° C. The plasma was centrifuged at 3,000 rpm for 8 minutes to remove clots, pipetted and the supernatant was pooled as the plasma to be used in the experiment. The pH of the plasma was checked and recorded and only used within the range of pH 7.4 to pH 8. If higher than pH 8, the plasma was discarded. The initial pH of the plasma was not adjusted to pH 7.4 with acid or by bubbling with CO2. By using a 5% CO2 incubator and PBS buffer, a pH of 7.4 was reached after a 4 hour equilibrium dialysis time. The plasma was put on ice until used.
# Test compounds and reference compounds spiking solution. 0.5 mM test compounds spiking solution A: 10 μL of 10 mM test compounds stock solution was added to 190 μL DMSO. 0.02 mM spiking solution B: 40 μL of spiking solution A were added to 960 μL of 0.05 mM Sodium phosphate buffer with 0.5% BSA.
# The plasma and spiking solution B were pre-warmed at 37° C. for 5 min. 10 μL of pre-warmed spiking solution B was added into the wells designated for all the time points (0, 0.25, 1, 8, 24 h). For 0-min, 400 μL of ACN containing 1S was added to the wells of 0-min plate and then 90 μL of plasma was added. 90 μL of pre-warmed plasma was added into the wells designated for the time points (0.25, 1, 8, 24 h), and start timing. At 0.25, 1, 8, 24 h, 400 μL of ACN containing IS was added to the wells of corresponding plates, respectively, to stop the reaction. After quenching, the plates were shaken on a vibrator (IKA, MTS 2/4) for 10 min (600 rpm/min) and then centrifuged at 5594 g for 15 min (Thermo Multifuge×3R). 50 μL of the supernatant from each well was transferred into a 96-well sample plate containing 50 μL of ultra pure water (Millipore, ZMQS50F01) for LC/MS analysis.
# [3] = biological target: T1, Glucocorticoid Receptor (GR) (Homo sapiens, UniProt P04150); assay: Cell based GR responsive luciferase reporter assay in HEK293/UASLuc/pBIND-GR cells; settings: for EC50: HEK293/UASLuc/pBIND-GR cells, 48 hours; for EC50 values after spacer attachment relative to parent steroid: comparison
# T1 construct: host or cells: HEK293 stably expressing human full length PRLR
# T1 sequence (P04150 524-758 limits assumed): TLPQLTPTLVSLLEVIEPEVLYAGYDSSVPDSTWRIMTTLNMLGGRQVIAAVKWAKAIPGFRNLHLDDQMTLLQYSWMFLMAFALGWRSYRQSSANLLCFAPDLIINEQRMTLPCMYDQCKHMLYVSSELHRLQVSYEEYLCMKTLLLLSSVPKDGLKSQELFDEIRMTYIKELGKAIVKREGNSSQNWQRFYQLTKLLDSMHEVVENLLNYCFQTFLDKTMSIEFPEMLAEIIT
# Text: A cell-based GR responsive luciferase reporter assay was used to test the GR agonist activity of compounds described herein. In this assay, the following materials were used.
# To generate the assay cell line, HEK293 cells were co-transfected with the pBind-GR (Promega, Cat #E158A) and pGL4.35 [Luc2P/9xGAL4UAS/Hygro] (Promega, Cat #E137A) vectors. The pBind-GR vector expresses a fusion protein consisting of the yeast Gal4DNA-binding domain and the GR ligand binding domain, that can bind to the Gal4 upstream activation sequence (UAS) in the luciferase expression vector and induce luciferase expression following GR agonist binding. The cells were selected for at least 2 weeks in G418+ hygromycin. The resulting cell line is referred to as HEK293/UASLuc/pBIND-GR.
# Three-fold serial dilutions of test compounds were prepared in 100% DMSO, transferred to fresh assay media, and added to the cells. […] The last well in the plate served as blank control containing only the assay media and 0.2% DMSO (untreated well) and was plotted as a continuation of the 3-fold serial dilution.
# Forty-eight hours later, luciferase activity was determined after the addition of One-Glo™ reagent (Promega, Cat #E6130). Relative light units (RLUs) were measured on an Envision luminometer (PerkinElmer) and EC50 values were determined using a four-parameter logistic equation over a 10-point dose response curve (GraphPad Prism). The signal to noise (S/N) was determined by taking the ratio of the highest RLU on the dose response curve to the RLU in the untreated wells.
# [4] = biological target: T1, Glucocorticoid Receptor (GR); assay: as above; settings: ratio of highest RLU on the dose response curve to RLU in untreated wells, 48 hours
structure (smiles),measurement,setting,value
CCCC1O[C@@H]2C[C@H]3[C@@H]4CCC5=CC(=O)C=C[C@]5(C)[C@H]4[C@@H](O)C[C@]3(C)[C@]2(C(=O)COCNC(=O)CNC(=O)OCc2ccc(NC(=O)[C@H](CCCNC(N)=O)NC(=O)[C@@H](NC(=O)CCOCCOCCOCCOCCNC(=O)CCC(=O)N3Cc4ccccc4C#Cc4ccccc43)C(C)C)cc2)O1 (some centres unmarked) [LP9],solubility,[1],< 20 µg/mL
CCN(CC)CCOC(=O)c1ccc(N)cc1 [Procaine],half-life at 2 µM,[2],< 0.25 h
same,Percent Remaining (%) 0 h,[2],100.00%
same,Percent Remaining (%) 1 h,[2],BQL
same,Percent Remaining (%) 8 h,[2],BQL
same,Percent Remaining (%) 24 h,[2],BQL
same,Percent Remaining (%) […],[2],BQL
"CCCC1O[C@@H]2C[C@H]3[C@@H]4C[C@H](F)C5=CC(=O)C=C[C@]5(C)[C@@]4(F)[C@@H](O)C[C@]3(C)[C@]2(C(=O)CO)O1 (stereo in doubt) [Compound 100, (1S,2S,4R,8S,9S,11S,12R,13S,19S)-12,19-Difluoro-11-hydroxy-8-(2-hydroxyacetyl)-9,13-dimethyl-6-propyl-5,7-dioxapentacyclo[10.8.0.0^2,^9.0^4,^8.0^13,^18]icosa-14,17-dien-16-one]",fold more potent than 1a (budesonide),[3]; EC50 comparison,5.6 fold
same,fold more potent than Dexamethasone,[3]; EC50 comparison,5.9 fold
same,EC50,[3],0.0547 nM
same,S/N,[4],14.5
"CCCC1O[C@@H]2C[C@H]3[C@@H]4C[C@H](F)C5=CC(=O)C=C[C@]5(C)[C@@]4(F)[C@@H](O)C[C@]3(C)[C@]2(C(=O)COCNC(=O)CN)O1 (stereo partly drawn) [Compound 103b, 2-Amino-N-({2-[(1S,2S,4R,8S,9S,11S,12R,13S,19S)-12,19-difluoro-11-hydroxy-9,13-dimethyl-16-oxo-6-propyl-5,7-dioxapentacyclo[10.8.0.0^2,^9.0^4,^8.0^13,^18]icosa-14,17-dien-8-yl]-2-oxoethoxy}methyl)acetamide]",EC50 values after spacer attachment relative to parent steroid,[3],comparable to 100
same,S/N,[4],16.6
same,solubility,physchem,< 20 µg/mL
CCCC1O[C@@H]2C[C@H]3[C@@H]4C[C@H](F)C5=CC(=O)C=C[C@]5(C)[C@@]4(F)[C@@H](O)C[C@]3(C)[C@]2(C(=O)COCNC(=O)CNC(=O)OCc2ccc(NC(=O)[C@H](CCCNC(N)=O)NC(=O)[C@@H](NC(=O)CCOCCOCCOCCOCCNC(=O)CCC(=O)N3Cc4ccccc4C#Cc4ccccc43)C(C)C)cc2)O1 (some centres unmarked) [LP10],solubility,[1],< 20 µg/mL
CCCC1O[C@@H]2C[C@H]3[C@@H]4C[C@H](F)C5=CC(=O)C=C[C@]5(C)[C@@]4(F)[C@@H](O)C[C@]3(C)[C@]2(C(=O)COC(=O)c2ccc(CN)cc2)O1 (some centres unmarked) [Compound 105a],fold less potent than 100,"[3]; EC50 comparison after spacer attachment to 100, text",2.7 fold
"CCCC1O[C@@H]2C[C@H]3[C@@H]4CCC5=CC(=O)C=C[C@]5(C)[C@H]4[C@@H](O)C[C@]3(C)[C@]2(C(=O)COCNC(=O)CN)O1 (stereo partly drawn) [Compound 103a, 2-Amino-N-({2-[(1S,2S,4R,8S,9S,11S,12S,13R)-11-hydroxy-9,13-dimethyl-16-oxo-6-propyl-5,7-dioxapentacyclo[10.8.0.0^2,^9.0^4,^8.0^13,^18]icosa-14,17-dien-8-yl]-2-oxoethoxy}methyl)acetamide]",half-life at 2 µM,[2],16.8 h
same,Percent Remaining (%) 0 h,[2],100.00%
same,Percent Remaining (%) 1 h,[2],96.48%
same,Percent Remaining (%) 8 h,[2],78.87%
same,Percent Remaining (%) 24 h,[2],38.03%
same,Percent Remaining (%) […],[2],107.04%
same,EC50,[3],0.484 nM
same,EC50 values after spacer attachment relative to parent steroid,[3],comparable to 1a
same,S/N,[4],14.6
same,solubility,physchem,< 20 µg/mL
